From patent US20140221361A1, “C-19 MODIFIED TRITERPENOIDS WITH HIV MATURATION INHIBITORY ACTIVITY” (priority 2013, published 2014) come the findings set out here.

The test relates to recombinant NL4-3 virus (Renilla luciferase in nef, Gag P373S). Description: HIV cell culture assay (luciferase reporter, MT-2 cells). The test is classed as cell-based, HIV-1. To be noted: Renilla, NL43, MT-2 cells infected for 4-5 days with NLRluc recombinants; luciferase activity; serial dilutions of inhibitor. Summed up: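 MT-2 cells infected with recombinant NL4-3 carrying Renilla luciferase in place of part of nef and Gag P373S, virus made by 293T transfection. Infection ran 4-5 days with serial inhibitor dilutions. Antiviral activity read as luciferase activity (Dual Luciferase reagents mixed with lysis buffer).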
With `CC1(C)C(c2ccc(C(=O)O)cc2)=CC[C@]2(C)[C@H]3CC[C@@H]4[C@H]5[C@H](N)CC[C@]5(NCCN5CCS(=O)(=O)CC5)CC[C@@]4(C)[C@]3(C)CC[C@@H]12` [Example B33, 4-((1R,3aR,5aR,5bR,7aR,11aS,11bR,13aR,13bS)-1-amino-3a-((2-(1,1-dioxidothiomorpholino)ethyl)amino)-5a,5b,8,8,11a-pentamethyl-2,3,3a,4,5,5a,5b,6,7,7a,8,11,11a,11b,12,13,13a,13b-octadecahydro-1H-cyclopenta[a]chrysen-9-yl)benzoic acid], the EC50 (as a rule, the concentration at which the effect is half-maximal) was found to be 130 nM.

For `COCCS(=O)(=O)CCN(C)CCN[C@]12CC[C@@H](N(C)C)[C@@H]1[C@H]1CC[C@@H]3[C@@]4(C)CC=C(c5ccc(C(=O)O)cc5)C(C)(C)[C@@H]4CC[C@@]3(C)[C@]1(C)CC2` [Example B34], the EC50 is 20 nM.

For `CNC(C)[C@@H]1CC[C@]2(NCCN3CCS(=O)(=O)CC3)CC[C@]3(C)[C@H](CC[C@@H]4[C@@]5(C)CC=C(c6ccc(C(=O)O)cc6)C(C)(C)[C@@H]5CC[C@]43C)[C@@H]12` (stereo partly drawn) [Example B35, 4-((1R,3aS,5aR,5bR,7aR,11aS,11bR,13aR,13bS)-3a-((2-(1,1-dioxidothiomorpholino)ethyl)amino)-5a,5b,8,8,11a-pentamethyl-1-(1-(methylamino)ethyl)-2,3,3a,4,5,5a,5b,6,7,7a,8,11,11a,11b,12,13,13a,13b-octadecahydro-1H-cyclopenta[a]chrysen-9-yl)benzoic acid], the EC50 is 4.24 nM.

On to `CC(=O)N[C@@H]1CC[C@]2(NCCN3CCS(=O)(=O)CC3)CC[C@]3(C)[C@H](CC[C@@H]4[C@@]5(C)CC=C(c6ccc(C(=O)O)cc6)C(C)(C)[C@@H]5CC[C@]43C)[C@@H]12` [Example B36, 4-((1R,3aR,5aR,5bR,7aR,11aS,11bR,13aR,13bS)-1-acetamido-3a-((2-(1,1-dioxidothiomorpholino)ethyl)amino)-5a,5b,8,8,11a-pentamethyl-2,3,3a,4,5,5a,5b,6,7,7a,8,11,11a,11b,12,13,13a,13b-octadecahydro-1H-cyclopenta[a]chrysen-9-yl)benzoic acid], for which the EC50 was 6.29 nM.

Take `CN[C@@H]1CC[C@]2(NCCN3CCS(=O)(=O)CC3)CC[C@]3(C)[C@H](CC[C@@H]4[C@@]5(C)CC=C(c6ccc(C(=O)O)cc6)C(C)(C)[C@@H]5CC[C@]43C)[C@@H]12` [Example B37, 4-((1R,3aR,5aR,5bR,7aR,11aS,11bR,13aR,13bS)-3a-((2-(1,1-dioxidothiomorpholino)ethyl)amino)-5a,5b,8,8,11a-pentamethyl-1-(methylamino)-2,3,3a,4,5,5a,5b,6,7,7a,8,11,11a,11b,12,13,13a,13b-octadecahydro-1H-cyclopenta[a]chrysen-9-yl)benzoic acid]: the concentration giving a half-maximal response (EC50) was 40 nM.

On to `CN(C)[C@@H]1CC[C@]2(NCCN3CCS(=O)(=O)CC3)CC[C@]3(C)[C@H](CC[C@@H]4[C@@]5(C)CC=C(c6ccc(C(=O)O)cc6)C(C)(C)[C@@H]5CC[C@]43C)[C@@H]12` [Example B38, 4-((1R,3aR,5aR,5bR,7aR,11aS,11bR,13aR,13bS)-1-(dimethylamino)-3a-((2-(1,1-dioxidothiomorpholino)ethyl)amino)-5a,5b,8,8,11a-pentamethyl-2,3,3a,4,5,5a,5b,6,7,7a,8,11,11a,11b,12,13,13a,13b-octadecahydro-1H-cyclopenta[a]chrysen-9-yl)benzoic acid], for which the EC50 came to 10 nM.

In the case of `CC1(C)C(c2ccc(C(=O)O)cc2)=CC[C@]2(C)[C@H]3CC[C@@H]4[C@H]5[C@H](CO)CC[C@]5(NCCN5CCS(=O)(=O)CC5)CC[C@@]4(C)[C@]3(C)CC[C@@H]12` [Example B42, 4-((1R,3aS,5aR,5bR,7aR,11aS,11bR,13aR,13bS)-3a-((2-(1,1-dioxidothiomorpholino)ethyl)amino)-1-(hydroxymethyl)-5a,5b,8,8,11a-pentamethyl-2,3,3a,4,5,5a,5b,6,7,7a,8,11,11a,11b,12,13,13a,13b-octadecahydro-1H-cyclopenta[a]chrysen-9-yl)benzoic acid], the EC50 turned out to be 40 nM.

As for `CC1(C)C(c2ccc(C(=O)O)cc2)=CC[C@]2(C)[C@H]3CC[C@@H]4[C@H]5[C@H](NC(=O)C(F)(F)F)CC[C@]5(NCCN5CCS(=O)(=O)CC5)CC[C@@]4(C)[C@]3(C)CC[C@@H]12` [Example B43, 4-((1R,3aR,5aR,5bR,7aR,11aS,11bR,13aR,13bS)-3a-((2-(1,1-dioxidothiomorpholino)ethyl)amino)-5a,5b,8,8,11a-pentamethyl-1-(2,2,2-trifluoroacetamido)-2,3,3a,4,5,5a,5b,6,7,7a,8,11,11a,11b,12,13,13a,13b-octadecahydro-1H-cyclopenta[a]chrysen-9-yl)benzoic acid], the 50% effective concentration (EC50) was found to be 2.12 nM.

`CN(C(=O)C(F)(F)F)[C@@H]1CC[C@]2(NCCN3CCS(=O)(=O)CC3)CC[C@]3(C)[C@H](CC[C@@H]4[C@@]5(C)CC=C(c6ccc(C(=O)O)cc6)C(C)(C)[C@@H]5CC[C@]43C)[C@@H]12` [Example B44, 4-((1R,3aR,5aR,5bR,7aR,11aS,11bR,13aR,13bS)-3a-((2-(1,1-dioxidothiomorpholino)ethyl)amino)-5a,5b,8,8,11a-pentamethyl-1-(2,2,2-trifluoro-N-methylacetamido)-2,3,3a,4,5,5a,5b,6,7,7a,8,11,11a,11b,12,13,13a,13b-octadecahydro-1H-cyclopenta[a]chrysen-9-yl)benzoic acid]: the EC50 was 5.92 nM.

As to `CC1(C)C(c2ccc(C(=O)O)cc2)=CC[C@]2(C)[C@H]3CC[C@@H]4[C@H]5[C@H](NC(=O)c6ccc(C7(C(F)(F)F)N=N7)cc6)CC[C@]5(NCCN5CCS(=O)(=O)CC5)CC[C@@]4(C)[C@]3(C)CC[C@@H]12` [Example B45, 4-((1R,3aR,5aR,5bR,7aR,11aS,11bR,13aR,13bS)-3a-((2-(1,1-dioxidothiomorpholino)ethyl)amino)-5a,5b,8,8,11a-pentamethyl-1-(4-(3-(trifluoromethyl)-3H-diazirin-3-yl)benzamido)-2,3,3a,4,5,5a,5b,6,7,7a,8,11,11a,11b,12,13,13a,13b-octadecahydro-1H-cyclopenta[a]chrysen-9-yl)benzoic acid], the EC50 turned out to be 50 nM.

Regarding `CC(=O)[C@@H]1CC[C@]2(N)CC[C@]3(C)[C@H](CC[C@@H]4[C@@]5(C)CC=C(c6ccc(C(=O)O)cc6)C(C)(C)[C@@H]5CC[C@]43C)[C@@H]12` [Example B46, 4-((1R,3aS,5aR,5bR,7aR,11aS,11bR,13aR,13bS)-1-acetyl-3a-amino-5a,5b,8,8,11a-pentamethyl-2,3,3a,4,5,5a,5b,6,7,7a,8,11,11a,11b,12,13,13a,13b-octadecahydro-1H-cyclopenta[a]chrysen-9-yl)benzoic acid], the EC50 amounted to 290 nM.

For the molecule `CC(=O)[C@@H]1CC[C@]2(NCCN3CCS(=O)(=O)CC3)CC[C@]3(C)[C@H](CC[C@@H]4[C@@]5(C)CC=C(c6ccc(C(=O)O)cc6)C(C)(C)[C@@H]5CC[C@]43C)[C@@H]12` [Example B47, 4-((1R,3aS,5aR,5bR,7aR,11aS,11bR,13aR,13bS)-1-acetyl-3a-((2-(1,1-dioxidothiomorpholino)ethyl)amino)-5a,5b,8,8,11a-pentamethyl-2,3,3a,4,5,5a,5b,6,7,7a,8,11,11a,11b,12,13,13a,13b-octadecahydro-1H-cyclopenta[a]chrysen-9-yl)benzoic acid], the EC50 worked out at 10 nM.

As to `CC1([C@@H]2CC[C@]3(C(=O)O)CC[C@]4(C)[C@H](CC[C@@H]5[C@@]6(C)CC=C(c7ccc(C(=O)O)cc7)C(C)(C)[C@@H]6CC[C@]54C)[C@@H]23)CC1` [Example B48, (1R,3aS,5aR,5bR,7aR,11aS,11bR,13aR,13bR)-9-(4-carboxyphenyl)-5a,5b,8,8,11a-pentamethyl-1-(1-methylcyclopropyl)-2,3,3a,4,5,5a,5b,6,7,7a,8,11,11a,11b,12,13,13a,13b-octadecahydro-1H-cyclopenta[a]chrysene-3a-carboxylic acid], the EC50 turned out to be 10 nM.

For the molecule `CC1([C@@H]2CC[C@]3(N)CC[C@]4(C)[C@H](CC[C@@H]5[C@@]6(C)CC=C(c7ccc(C(=O)O)cc7)C(C)(C)[C@@H]6CC[C@]54C)[C@@H]23)CC1` [Example B49, 4-((1R,3aS,5aR,5bR,7aR,11aS,11bR,13aR,13bR)-3a-amino-5a,5b,8,8,11a-pentamethyl-1-(1-methylcyclopropyl)-2,3,3a,4,5,5a,5b,6,7,7a,8,11,11a,11b,12,13,13a,13b-octadecahydro-1H-cyclopenta[a]chrysen-9-yl)benzoic acid], the EC50 amounted to 0.985 nM.

Regarding `CN[C@]12CC[C@@H](C3(C)CC3)[C@@H]1[C@H]1CC[C@@H]3[C@@]4(C)CC=C(c5ccc(C(=O)O)cc5)C(C)(C)[C@@H]4CC[C@@]3(C)[C@]1(C)CC2` [Example B50, 4-((1R,3aS,5aR,5bR,7aR,11aS,11bR,13aR,13bR)-5a,5b,8,8,11a-pentamethyl-3a-(methylamino)-1-(1-methylcyclopropyl)-2,3,3a,4,5,5a,5b,6,7,7a,8,11,11a,11b,12,13,13a,13b-octadecahydro-1H-cyclopenta[a]chrysen-9-yl)benzoic acid], the EC50 stood at 1.36 nM.

On to `CC1([C@@H]2CC[C@]3(NC(=O)CN4CCS(=O)(=O)CC4)CC[C@]4(C)[C@H](CC[C@@H]5[C@@]6(C)CC=C(c7ccc(C(=O)O)cc7)C(C)(C)[C@@H]6CC[C@]54C)[C@@H]23)CC1` [Example B51, 4-((1R,3aS,5aR,5bR,7aR,11aS,11bR,13aR,13bR)-3a-(2-(1,1-dioxidothiomorpholino)acetamido)-5a,5b,8,8,11a-pentamethyl-1-(1-methylcyclopropyl)-2,3,3a,4,5,5a,5b,6,7,7a,8,11,11a,11b,12,13,13a,13b-octadecahydro-1H-cyclopenta[a]chrysen-9-yl)benzoic acid], for which the concentration giving a half-maximal response (EC50) worked out at 1.1 nM.
